The results in this text go back to patent publication US8426406B2, “Glucocorticoid receptor agonist comprising 2,2,4-trimethyl-6-phenyl-1,2-dihydroquinoline derivatives having substituted oxy group” (Santen Pharmaceutical Co., Ltd., priority 2008, dated 2013).

For the test, the system named is IL-6 production induced by lipopolysaccharide (LPS) in human corneal epithelial cells. Nature of the test: Evaluation test for GR agonist activity: inhibition of LPS-induced IL-6 production in human corneal epithelial cells (HCE-T). Type of test: cell-based. To be noted: Corneal epithelial cell, 10 μL of 100 μM test compound solution per well, 4 hours incubation, efficacy relative to DEX. The method, then: In order to evaluate a GR agonist activity of the present compound, the inhibitory effects on the IL-6 production induced by lipopolysaccharide (LPS) in human corneal epithelial cells. IL-6 levels in the conditioned medium were measured using the HTRF human IL-6 Kit (boehringer-Ingelheim, Cat No. 62IL6PEB), and the procedure was carried out according to the protocol attached to the kit. Hereinafter, the specific method will be described.
LPS solution: After LPS was dissolved in phosphate buffer solution (hereinafter referred to as PBS(−)), the resulting solution was diluted with 10% FBS-DMEM/F12 medium, whereby a 1 μg/mL LPS solution was prepared.
After a test compound was dissolved in dimethylsulfoxide (hereinafter referred to as DMSO), the resulting solution was diluted with 10% FBS-DMEM/F12 medium, whereby a 100 μM test compound solution was prepared. A 100 μM DEX solution was prepared by the same method, and the inhibitory ratio of IL-6 production of DEX was evaluated to use for calculating efficacy (% DEX).
Used cell: SV40-immortalized human corneal epithelial cells (HCE-T) (RIKEN)
1) HCE-T cells were harvested, and seeded at 2.0×10^4 cells/0.1 mL/well in a 96-well plate.
2) After incubation overnight, the medium was removed and a 80 μL of new 10% FBS-DMEM/Ham's F12 medium was added into each well.
3) A 10 μL of test compounds solution was added into each well.
4) A 10 μL of LPS solution was added into each well.
5) As a negative control, a 10 μL of 10% FBS-DMEM/Ham's F12 medium was added into each well instead of a test compound solution and a LPS solution.
6) As a positive control, a 10 μL of 10% FBS-DMEM/Ham's F12 medium containing 1% DMSO was added into each well instead of a test compound solution.
7) After 4 hours incubation, supernatants were collected and IL-6 levels in the supernatants were quantitated using the HTRF human IL-6 Kit.
8) The inhibition ratio of IL-6 production (%) was calculated according to the following equation.
The inhibition ratio of IL-6 production (%) was calculated according to the following equation. The inhibition ratio of IL-6 production(%)=100×[1−(IL-6 level in each group−mean value of IL-6 level in negative control)/(mean value of IL-6 level in positive control−mean value of IL-6 level in negative control)](%)
Furthermore, the inhibition ratio of IL-6 production (efficacy (% DEX)) was also calculated according to the following equation. Efficacy(% DEX)=100×{(mean value of IL-6 inhibition in compound-treated group)/(mean value of IL-6 inhibition in DEX-treated group)}(%) (Result and Discussion)
A word on the Emax: it is the maximal effect, on the per cent scale that the assay sets. Regarding `COc1ccccc1NCc1c(-c2ccc(OC(=O)c3occc3C)cc2OC)ccc2c1C(C)=CC(C)(C)N2` [Compound 1-114, 6-[2-Methoxy-4-(3-methylfuran-2-ylcarbonyloxy)phenyl]-5-(2-methoxyphenylaminomethyl)-2,2,4-trimethyl-1,2-dihydroquinoline], the Emax was found to be 87%.
To `COc1cc(OC(=O)c2ccncc2)ccc1-c1ccc2c(c1CNc1cc(F)ccc1C)C(C)=CC(C)(C)N2` [Compound 1-119, 5-(5-Fluoro-2-methylphenylaminomethyl)-6-[2-methoxy-4-(pyridin-4-ylcarbonyloxy)phenyl]-2,2,4-trimethyl-1,2-dihydroquinoline] belongs 75%; to `COc1ccccc1NCc1c(-c2ccc(OC(=O)c3ccccc3Cl)cc2OC)ccc2c1C(C)=CC(C)(C)N2` [Compound 1-99, 6-[4-(2-Chlorobenzoyloxy)-2-methoxyphenyl]-5-(2-methoxyphenylaminomethyl)-2,2,4-trimethyl-1,2-dihydroquinoline], 89%; to `COc1cc(OC(=O)N2CCOCC2)ccc1-c1ccc2c(c1COC(=O)c1ccc(C)s1)C(C)=CC(C)(C)N2` [Compound 6-26, 6-[2-Methoxy-4-(morpholin-4-ylcarbonyloxy)phenyl]-5-(5-methylthiophen-2-ylcarbonyloxymethyl)-2,2,4-trimethyl-1,2-dihydroquinoline], 84%.
To `COc1cc(OC(=O)N(C)C)ccc1-c1ccc2c(c1COC(=O)c1ccc(C)s1)C(C)=CC(C)(C)N2` [Compound 6-37, 6-(4-Dimethylaminocarbonyloxy-2-methoxyphenyl)-5-(5-methylthiophen-2-ylcarbonyloxymethyl)-2,2,4-trimethyl-1,2-dihydroquinoline] belongs 85%.
As to `CCCS(=O)(=O)Oc1ccc(-c2ccc3c(c2COc2cc(F)ccc2C)C(C)=CC(C)(C)N3)c(OC)c1` [Compound 4-3, 5-(5-Fluoro-2-methylphenoxymethyl)-6-(2-methoxy-4-propylsulfonyloxyphenyl)-2,2,4-trimethyl-1,2-dihydroquinoline], the Emax is 81%.
To `COc1ccccc1NCc1c(-c2ccc(OS(C)(=O)=O)cc2OC)ccc2c1C(C)=CC(C)(C)N2` [Compound 4-20, 6-(2-Methoxy-4-methylsulfonyloxyphenyl)-5-(2-methoxyphenylaminomethyl)-2,2,4-trimethyl-1,2-dihydroquinoline] belongs 75%; to `COc1cc(OC(=O)c2ccccc2SC)ccc1-c1ccc2c(c1COC(=O)c1ccc(C)s1)C(C)=CC(C)(C)N2` [Compound 1-151], 90%; to `COc1cc(OC(=O)c2occc2C)ccc1-c1ccc2c(c1COC(=O)c1ccc(C)s1)C(C)=CC(C)(C)N2` [Compound 1-171, 6-[2-Methoxy-4-(3-methylfuran-2-ylcarbonyloxy)phenyl]-5-(5-methylthiophen-2-ylcarbonyloxymethyl)-2,2,4-trimethyl-1,2-dihydroquinoline], 87%.
To `COc1cc(OC(=O)c2cscn2)ccc1-c1ccc2c(c1COc1cc(F)ccc1C)C(C)=CC(C)(C)N2` [Compound 1-40, 5-(5-Fluoro-2-methylphenoxymethyl)-6-[2-methoxy-4-(thiazol-4-ylcarbonyloxy)phenyl]-2,2,4-trimethyl-1,2-dihydroquinoline] belongs 75%.
To `COc1cc(OC(=O)c2ccccc2Cl)ccc1-c1ccc2c(c1CNc1cc(F)ccc1C)C(C)=CC(C)(C)N2` [Compound 1-98, 6-[4-(2-Chlorobenzoyloxy)-2-methoxyphenyl]-5-(5-fluoro-2-methylphenylaminomethyl)-2,2,4-trimethyl-1,2-dihydroquinoline] belongs 78%; to `COc1cc(OC(=O)c2cscn2)ccc1-c1ccc2c(c1COC(=O)c1ccc(C)s1)C(C)=CC(C)(C)N2` [Compound 1-155, 6-[2-Methoxy-4-(thiazol-4-ylcarbonyloxy)phenyl]-5-(5-methylthiophen-2-ylcarbonyloxymethyl)-2,2,4-trimethyl-1,2-dihydroquinoline], 83%.
With `COc1cc(OC(=O)c2ccc(C)nc2)ccc1-c1ccc2c(c1COc1cc(F)ccc1C)C(C)=CC(C)(C)N2` [Compound 1-55, 5-(5-Fluoro-2-methylphenoxymethyl)-6-[2-methoxy-4-(6-methylpyridin-3-ylcarbonyloxy)phenyl]-2,2,4-trimethyl-1,2-dihydroquinoline], the Emax amounted to 76%.
The value for `COc1cc(OS(=O)(=O)C(C)C)ccc1-c1ccc2c(c1COC(=O)c1ccc(C)s1)C(C)=CC(C)(C)N2` [Compound 4-29, 6-(4-Isopropylsulfonyloxy-2-methoxyphenyl)-5-(5-methylthiophen-2-ylcarbonyloxymethyl)-2,2,4-trimethyl-1,2-dihydroquinoline] was 92%; that for `COc1cc(OC(=O)c2ccoc2)ccc1-c1ccc2c(c1COC(=O)c1ccc(C)s1)C(C)=CC(C)(C)N2` [Compound 1-148, 6-[4-(Furan-3-ylcarbonyloxy)-2-methoxyphenyl]-5-(5-methylthiophen-2-ylcarbonyloxymethyl)-2,2,4-trimethyl-1,2-dihydroquinoline] was 86%.
The value for `COc1cc(OC(=O)c2occc2C)ccc1-c1ccc2c(c1COc1cc(F)ccc1C)C(C)=CC(C)(C)N2` [Compound 1-57, 5-(5-Fluoro-2-methylphenoxymethyl)-6-[2-methoxy-4-(3-methylfuran-2-ylcarbonyloxy)phenyl]-2,2,4-trimethyl-1,2-dihydroquinoline] was 86%.
Regarding `COc1cc(OC(=O)c2ccccc2F)ccc1-c1ccc2c(c1COc1cc(F)ccc1C)C(C)=CC(C)(C)N2` [Compound 1-45, 6-[4-(2-Fluorobenzoyloxy)-2-methoxyphenyl]-5-(5-fluoro-2-methylphenoxymethyl)-2,2,4-trimethyl-1,2-dihydroquinoline], the Emax worked out at 77%.
To `COc1cc(OC(=O)c2ccccc2SC)ccc1-c1ccc2c(c1COc1cc(F)ccc1C)C(C)=CC(C)(C)N2` [Compound 1-38] belongs 75%; to `COc1cc(OC(=O)N(C)C)ccc1-c1ccc2c(c1COc1cc([N+](=O)[O-])ccc1C)C(C)=CC(C)(C)N2` [Compound 6-33, 6-(4-Dimethylaminocarbonyloxy-2-methoxyphenyl)-5-(2-methyl-5-nitrophenoxymethyl)-2,2,4-trimethyl-1,2-dihydroquinoline], 78%; to `COc1cc(OC(=O)c2ccccc2[N+](=O)[O-])ccc1-c1ccc2c(c1COC(=O)c1ccc(C)s1)C(C)=CC(C)(C)N2` [Compound 1-170, 6-[2-Methoxy-4-(2-nitrobenzoyloxy)phenyl]-5-(5-methylthiophen-2-ylcarbonyloxymethyl)-2,2,4-trimethyl-1,2-dihydroquinoline], 77%.
The value for `COc1cc(OS(=O)(=O)CCC(F)(F)F)ccc1-c1ccc2c(c1COC(=O)c1ccc(C)s1)C(C)=CC(C)(C)N2` [Compound 4-26, 6-[2-Methoxy-4-(3,3,3-trifluoropropylsulfonyl-oxy)phenyl]-5-(5-methylthiophen-2-yl-carbonyloxymethyl)-2,2,4-trimethyl-1,2-dihydroquinoline] was 77%.
To `COc1cc(OC(=O)c2occc2C)ccc1-c1ccc2c(c1CNc1cc(F)ccc1C)C(C)=CC(C)(C)N2` [Compound 1-126, 5-(5-Fluoro-2-methylphenylaminomethyl)-6-[2-methoxy-4-(3-methylfuran-2-ylcarbonyloxy)phenyl]-2,2,4-trimethyl-1,2-dihydroquinoline] belongs 81%.
For the molecule `COc1ccccc1NCc1c(-c2ccc(OC(=O)c3ccoc3)cc2OC)ccc2c1C(C)=CC(C)(C)N2` [Compound 1-95, 6-[4-(Furan-3-ylcarbonyloxy)-2-methoxyphenyl]-5-(2-methoxyphenylaminomethyl)-2,2,4-trimethyl-1,2-dihydroquinoline], the Emax was found to be 87%.
In the case of `COc1ccccc1NCc1c(-c2ccc(OC(=O)c3cccnc3C)cc2OC)ccc2c1C(C)=CC(C)(C)N2` [Compound 1-91, 6-[2-Methoxy-4-(2-methylpyridin-3-ylcarbonyloxy)phenyl]-5-(2-methoxyphenylaminomethyl)-2,2,4-trimethyl-1,2-dihydroquinoline], the Emax came to 92%.
The value for `COc1cc(OC(=O)c2cccnc2C)ccc1-c1ccc2c(c1COC(=O)c1ccc(C)s1)C(C)=CC(C)(C)N2` [Compound 1-153, 6-[2-Methoxy-4-(2-methylpyridin-3-ylcarbonyloxy)phenyl]-5-(5-methylthiophen-2-ylcarbonyloxymethyl)-2,2,4-trimethyl-1,2-dihydroquinoline] was 89%.
